Measurements published in patent US20160058829A1, “ANTI-FIBROTIC PEPTIDES AND THEIR USE IN METHODS FOR TREATING DISEASES AND DISORDERS CHARACTERIZED BY FIBROSIS” (Thrasos Innovation, Inc., priority 2011, published 2016).
“Also recorded” adds a separate entry of the source. Positions of bridges follow the written chain, without caps; N, C: chain ends.

Columns and labels:
HK-2 cells = test: TNF-α-induced inflammatory cytokine production in HK-2 cells (ELISA); type: cell-based, human
Method: FIG. 37 provides a bar graph showing a comparison of the effects of THR-123 (or “THR-1405”) and the specific inhibitor SB 203580 on the level of TNF-α-induced IL-6 production, an inflammatory marker, in human renal tubule epithelial cells (HK-2).
FIG. 47A-FIG. 47C Anti-inflammatory activity of THR-123. PTEC-derived HK-2 (HK-2) cells were culture on 24-well plate (30,000 cells/well). Cells are exposed to K-SFM medium alone or TNF-α (5 ng/ml). Twenty hours after TNF-α incubation, cells are washed twice by pre-warmed culture media and subsequently cells are incubated with various concentration of THR-123 or BMP7 for 60 hours. At the end of incubation, culture medias are harvested and ELISA analysis are performed. FIG. 47A: IL-6, FIG. 47B: IL-8 and FIG. 47C: ICAM-1 results are shown. Analyze are performed in triplicates and data are shown as mean±s.e.m. in the graph.
Preliminary screening for optimization was based on anti-inflammatory efficacy in an in vitro cell-based assay using a human renal tubular epithelial cell line (HK-2). The assay tested the ability of compounds to reverse the increase in production of cytokine IL-6 that resulted from stimulation of the cells with tumor necrosis factor (TNF)-α. Sequence-activity analysis was carried out using the SVA program. After six optimization cycles, THR-123 (FIG. 2A) emerged as the lead compound, which was further evaluated in other relevant anti-fibrosis assays (vide infra).
Human proximal tubular epithelial cells-derived HK-2 cells were culture on 24-well plate (30,000 cells/well). Cells are exposed to K-SFM medium alone or […] (5 ng/ml). Twenty hours after TNF-α incubation, cells are washed twice by pre-warmed culture media and subsequently cells are incubated with various concentration of THR-123 or BMP7 for 60 hours. At the end of incubation, culture medias are harvested and ELISA analysis for IL-6, IL-8 and ICAM-1 are performed.

p38 MAPK = p38 MAPK phosphorylation in HK-2 cells; type: cell-based, human; conditions: HK-2 cells
Description: The significance of p38 MAPK is that this protein is implicated as a non-Smad-dependent pathway for TGF-β-dependent EMT. Other non-Smad-dependent pathways implicated in TGF-β-dependent EMT include RhoA, Ras, PI3 kinase, Notch, and Wnt signaling pathways.
It has been shown that regulation p38 MAPK activity by pro-inflammatory factors has implications in fibrosis.

[1] = system: Streptozotocin-induced diabetic CD-1 mice; test: Advanced diabetic nephropathy, captopril and captopril/THR-123 combination (month 7-8)
[2] = system: human proximal tubule epithelial cells (HK2); test: D-glucose-induced EMT assay, E-cadherin immunofluorescence with colorimetric image analysis; type: cell-based; conditions: HK2 cells, high D-glucose
Method: Chronic hyperglycemia is a known cause of renal fibrosis in type 2 diabetes. The assay in this example induces the transdifferentiation from the epithelial to the mesenchymal phenotype (EMT) in human proximal tubule epithelial cells (HK2) by exposing them to high levels of D-glucose (100 mM and 200 mM). […] Exposure to 100 mM D-glucose results in the loss of E-cadherine expression as evidenced by the loss of the fluorescene signal. Using this assay test compounds are evaluated based on their ability to inhibit the EMT processes in the presence of high levels of D-glucose. FIGS. 4-16 are fluorescence micrographs of HK2 cells exposed to 100 mM D-glucose and 100 uM of SEQ IS NOs 1 through 11, respectively. Note that all but SEQ ID NOs 10 and 11 were able to preserve the epithelial phenotype (i.e., inhibit the EMT).
Results are provided in the context of FIG. 1 and Table 3, below. In Table 3 below, compound response is scored using image analysis as described herein in the method of Methods and Materials, part C. A 0% response corresponds to the signal for 100 mM (or 200 mM) D-glucose (untreated) while the 100% response corresponds to the signal for media in the absence of D-glucose.
It has been shown that transdifferentiation of proximal tubular epithelial cells is a critical step in the development of renal fibrosis, and that this is associated with a loss of the epithelial phenotypic marker, E-cadherin expression. This provides the basis for the development of a cell-based screening assay in which high concentrations of D-Glucose (50-100 mM) are used to induce a loss of E-cadherin expression in human renal proximal tubular epithelial (HK-2) cells, and compounds are tested for their ability to reverse the loss E-cadherin expression.
Materials: • Human proximal tubular epithelial cells, HK-2 (ATCC #CRL-2190) • Serum-free keratinocyte medium (GIBCO #17005-042, K-SFM) • Epidermal growth factor (EGF: 5 ng/mL) • Bovine pituitary extract (BPE: 40 ug/mL) • Primary antibody, Mouse IgG anti-E-cadherin (R&D Systems # MAB1838) • BSA [Sigma #A7030] • secondary antibody, FITC-conjugated Goat anti-mouse IgG (Fab2) fragment (Sigma-Aldrich # F-2653) • Paraformaldehyde (10%)) • Triton X-100 (Sigma # T-9284) • PBS (Fisher Scientific #BP399-1) • D-PBS (Invitrogen #14190-144) • Polypropylene tips (Axygen, Inc. 0.5-10 uL, cat # T-300-L-R; 1-200 uL, Cat # T-200-L-R; 1-1000 uL, Cat # T-1000-C-L-R) • 50 mL polypropylene culture tubes (Fisher Scientific, cat #06-443-18) • 24-well Coster cell culture plates (Fisher Scientific #07-200-84)
Reagents & Test Samples: • Positive control: BMP-7, assayed at concentrations 0.1 and 1 ug/mL • Test compounds (peptides): each tested at final concentrations 100 uM and 200 uM.
Assay Procedure for Cell Culture Assay: • Run assay in 24-well culture plates. • Seed HK-2 cells at a density between 25,000 and 30,000 cells per well in lmL K-SFM medium with supplements added (growth medium) • Incubate HK-2 cells for 24 hours at 37° C., and let cells attach the plate • Next Day afternoon, change the medium with K-SFM medium with no added supplements (serum free medium) in all wells except the first two control wells. • Continue incubating HK-2 cells overnight at 37° C. • Next Day, aspirate the medium from all wells. Incubate the cells in growth medium (first two control wells) or expose them to test compounds for 2 hours at 37° C. Final concentrations of each Test compound are 100 and 200 uM. BMP-7 serves as a positive control in the assay. • After incubation, add D-glucose to all wells except first two control wells. Final concentrations of D-Glucose are 50 and 100 mM. • Incubate HK-2 cells for 60 hours at 37° C. • Aspirate the medium from all wells. To the wells, add pre-warmed growth medium or serum free medium containing D-glucose alone or D-glucose and test compound or D-glucose and BMP-7. Final concentrations of D-Glucose and Test compound are the same as above. • Continue incubating HK-2 cells for 24 hours at 37° C. […]

## C[S+]([O-])c1ccc(-c2nc(-c3ccncc3)c(-c3ccc(F)cc3)[nH]2)cc1 (stereo not drawn) [SB 203580, reference compound]
HK-2 cells; HK-2 cells
  TNF-α-induced IL-6 production: significantly reduced
p38 MAPK
  basal p38 phosphorylation: inhibited p38 phosphorylation

## C[C@H](CS)C(=O)N1CCC[C@H]1C(=O)O [captopril]
[1]; CPR p.o. 50 mg/Kg/day, THR-123 p.o. 5 mg/Kg/day, month 7 to 8
  mesangial matrix expansion: did not inhibit progression of mesangial matrix expansion
[1]; month 7 to 8 treatment
  EMT program (E-cadherin/FSP1 double positive tubules): inhibited
  macrophage infiltration: partially
  tubule cell apoptosis (TUNEL) in diabetic kidney: significantly inhibited apoptosis
[1]; month 7 to 8 treatment, listed as CPR
  macrophage infiltration: inhibited macrophage infiltration

## (H)-CYYDDSSSVLCKKYRS-(OH) (H-CYYDDSSSVLCKKYRS-OH; disulfide 1-11; SMILES CC(C)C[C@@H]1NC(=O)[C@H](C(C)C)NC(=O)[C@H](CO)NC(=O)[C@H](CO)NC(=O)[C@H](CO)NC(=O)[C@H](CC(=O)O)NC(=O)[C@H](CC(=O)O)NC(=O)[C@H](Cc2ccc(O)cc2)NC(=O)[C@H](Cc2ccc(O)cc2)NC(=O)[C@@H](N)CSSC[C@@H](C(=O)N[C@@H](CCCCN)C(=O)N[C@@H](CCCCN)C(=O)N[C@@H](Cc2ccc(O)cc2)C(=O)N[C@@H](CCCNC(=N)N)C(=O)N[C@@H](CO)C(=O)O)NC1=O) [SEQ ID NO: 11]
HK-2 cells
  activity in anti-inflammatory assays: positive
[2]
  preservation of the epithelial phenotype (inhibition of EMT), anti-fibrotic effect: very weak anti-fibrotic effect; also recorded: unable to inhibit the EMT process
